Experimental data taken from patent US9248202B2, “Two-photon probe for detecting copper(II) ion and quantitative estimation of copper(II) ion in human tissue using the same” (Korea University Research and Business Foundation, priority 2014, dated 2016).

Tests used:
[1] = Fluorescence titration with copper(II) ion (one-photon and two-photon); assay type: binding
Method: Referring to FIG. 3(b), when small increments of copper(II) ion were added to ACCu2 in EtOH/HEPES (9/1 viv, pH=7.0), the TPEF intensity at the channel 2 (Ired) decreased gradually without any appreciable change at the channel 1 (Iblue).
The dissociation constant (Kd) can be calculated using Equation (2): […]
wherein I is the fluorescence intensity, Ifinal is the fluorescence intensity for the CU^2+-ACCu2 complex and Iinitial is the fluorescence intensity for ACCu2.
The dissociation constants (Kd^OP and Kd^TP) of ACCu2 for the OP and TP processes can be calculated from the fluorescence titration curves shown in FIG. 3(b). […] These indicate 1:1 complexation between the probe and the cation.
Referring to FIG. 5(a), the fluorescence intensities of ACCu2 according to the present disclosure measured by the OP (one-photon) and TP (two-photon) processes decreased by 10-fold in the presence of 200 μM of copper(II) ion. […] This means that quantitative measurement of copper(II) ion is possible in this concentration range. Moreover, the Ired/Iblue ratios determined in the two-photon mode were well fitted by the titration curve obtained in the one-photon mode.

[2] = Selectivity of ACCu2 for copper(II) ion against competing metal ions; details: ACCu2 3 μM; Na+, K+, Ca2+, Mg2+ 1 mM; transition metal ions 500 μM; then 200 μM Cu2+; EtOH/HEPES (9/1, pH 7.0)
Method: The black bars show the result obtained in the presence of alkali metal and alkaline earth metal ions Na^+, K^+, Ca^2+ and Mg^2+ (1 mM) and transition metal ions Mn^2+, Fe^2+, Co^2+, Ni^2+, Zn^2+, Pd^2+, Cd^2+ and […] in EtOH/HEPES (9/1 v/v, pH 7.0), and the white bars show the result obtained after further addition of 200 μM Cu^2+.

## COCCOCCOCCOc1ccc2c(ccc3cc(C(=O)N4CCN(C(=O)c5ccc(CNC(=O)c6cc7cc8ccc(N(C)C)cc8cc7oc6=O)nc5)CC4)c(=O)oc32)c1 [ACCu2]
[1]
  detection limit for copper ion by TPM: 0.84 µM
[1]; OP and TP processes, in the presence of 200 μM copper(II) ion
  decrease of fluorescence intensity: 10 fold
[1]; titration curve FIG. 5(b)
  copper(II) ion concentration range in which Ired/Iblue plot is linear: 0 to 0.25 µM
[2]
  selectivity for Cu2+ in the presence of competing metal ions: uninterrupted in the presence of the alkali metal, alkaline earth metal or transition metal ions
